Test results taken from patent US20200009088A1, “COMPOSITIONS AND METHODS FOR TREATING ANDROGEN-INDEPENDENT CANCER” (The Regents of the University of California, priority 2017, published 2020).
Entries after “also recorded” stand apart in the source; their conditions may differ.

Key:
AR-V7 [1] = target: T1, AR-V7 (Homo sapiens, UniProt P10275); assay: Western blot of AR-V7 expression in CWR22Rv1 cell lysates; type: cell-based; set-up: endogenous in cells; host or cells: CWR22Rv1 prostate cancer cells (also grown as xenograft tumours); settings: CWR22Rv1 cells, FIG. 2A
T1 sequence (P10275 1-644 isoform P10275-3): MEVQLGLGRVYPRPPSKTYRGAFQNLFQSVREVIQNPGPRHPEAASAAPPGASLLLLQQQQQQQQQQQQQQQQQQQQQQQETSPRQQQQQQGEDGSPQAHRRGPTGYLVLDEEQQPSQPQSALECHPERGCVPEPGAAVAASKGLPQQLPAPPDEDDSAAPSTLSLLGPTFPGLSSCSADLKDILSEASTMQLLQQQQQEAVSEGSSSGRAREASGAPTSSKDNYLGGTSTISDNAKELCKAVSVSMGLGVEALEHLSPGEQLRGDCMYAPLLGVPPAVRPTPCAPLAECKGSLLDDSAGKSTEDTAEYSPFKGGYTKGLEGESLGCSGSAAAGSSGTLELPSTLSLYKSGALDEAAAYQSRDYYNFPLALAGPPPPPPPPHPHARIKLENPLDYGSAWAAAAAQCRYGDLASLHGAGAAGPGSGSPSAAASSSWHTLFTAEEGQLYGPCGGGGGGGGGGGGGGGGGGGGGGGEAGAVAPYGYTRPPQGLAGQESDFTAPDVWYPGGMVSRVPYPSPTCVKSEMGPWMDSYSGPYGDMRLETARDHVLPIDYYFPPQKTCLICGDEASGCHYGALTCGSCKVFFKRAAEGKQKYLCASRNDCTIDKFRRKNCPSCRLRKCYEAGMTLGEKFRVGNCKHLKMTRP
Protocol: (§1) “AR-Variants” represents a combination of all forms of AR.
The effects of the synthetic small molecule modulators on AR and AR variant expression were determined. CWR22Ry1 prostate cancer cells were treated with different compounds. Protein lysates were analyzed for AR and AR variant expression.

[2] = system: CWR22Rv1 tumor xenografts; assay: CWR22Rv1 tumor xenograft growth in vivo
Protocol: (§2) Tumor volume, tumor weight, and body weight were measured. Protein lysates were isolated from the tumors and analyzed for AR and AR-V7 expression by Western blot. […] “AR-Variants” represents a combination of all forms of AR. * denotes p<0.05.
(§3) Protein lysates were isolated and analyzed for AR and AR-V7 expression by Western blot.

C4-2-V7 cells = assay: Cell growth assay (cell numbers), C4-2-V7; type: cell-based; settings: C4-2-V7, 0.5 μM + enzalutamide, 48 hours, FIG. 7D
AR-V7 [3] = target: T1, AR-V7; assay: PSA-luc reporter in LNCaP cells co-transfected with AR-V7; settings: LNCaP cells co-transfected with AR-V7, FIG. 4
Protocol: The luciferase activity was then determined. * denotes p<0.05.
In addition, the effects on AR transcriptional activity were determined using PSA-luc as a reporter. LNCaP cells were cotransfected with PSA-luc together with or without AR-V7, and treated with the compounds.

LuCaP 35CR PDX xenograft = assay: LuCaP 35CR PDX tumor model, oral administration; type: in vivo, mice
Description: For the data shown in FIG. 19A, a LuCaP 35CR PDX model was established in male castrated SCID mice. […] Tumor and body weights are shown in FIGS. 19B and 19C, respectively.

V716M AR mutant = target: T2, V716M AR mutant (Homo sapiens, UniProt P10275, V716M); assay: AR transactivation luciferase assay in HEK 293 cells, V716M; type: cell-based; settings: luciferase reporter, FIG. 5E
T2 construct: expressed in transfected cells; host or cells: HEK 293
Protocol: HEK 293 cells were transiently transfected with expression vectors encoding the corresponding mutant AR and an androgen-responsive luciferase reporter gene construct. […] Luciferase activity was then determined.

AR variants [4] = assay: AR variant protein degradation (cycloheximide, MG132, ubiquitin IP) in CWR22Rv1 cells; type: cell-based; settings: FIG. 15
Protocol: as §1
(§4) To determine if the small molecule modulators affect AR-V7 protein expression via protein degradation, CWR22Rv1 and C4-2B MDVR cells were treated with cycloheximide (CHX) and the half-life of AR-V7 protein was measured.
After 0, 2, 4, and 8 hours, whole cell lysate was collected and subjected to Western blot. The half-life of AR-V7 was then calculated.
Subsequently, the whole cell lysate was collected and subjected to Western blot.
For the data shown in FIG. 15C, CWR22Rv1 cells were treated with Nic, Compound 7, or Compound 31. Subsequently, whole cell lysate was immunoprecipitated with an AR antibody and blotted with ubiquitin and AR antibodies.

AR-V7 [5] = target: T1, AR-V7; assay: Western blot of AR-V7 in CWR22Rv1 xenograft tumor lysates; type: in vivo; set-up: endogenous in cells; host or cells: CWR22Rv1 prostate cancer cells (also grown as xenograft tumours); settings: CWR22Rv1 xenograft lysates vs controls, FIG. 13D
Protocol: as §2, §3

AR-V1 = target: T3, AR-V1 (Homo sapiens, UniProt P10275); assay: PSA-luc assay in C4-2B cells, AR-V1; type: cell-based; settings: FBS, 1 μM overnight, FIG. 14B
T3 construct: expressed in transfected cells; host or cells: C4-2B
Description: C4-2B cells were cotransfected with pcDNA, with or without AR-V1, AR-V3, AR-V7, AR-V9 or AR-V12, and with PSA-E/P-luciferase plasmids in FBS condition.

CWR22Rv1 cells = assay: Cell growth assay (cell numbers), CWR22Rv1; type: cell-based; settings: for synergy with abiraterone in inhibiting cell growth: CWR22Rv1, analog 0.25 μM + abiraterone 5 μM; for cell growth, combination with abiraterone: CWR22Rv1, analog 0.25 μM + abiraterone 5 μM, 0, 3, 5 days; for cell growth, combination with abiraterone / cell growth, combination with enzalutamide: FIGS. 9, 11; for cell growth, combination with bicalutamide: CWR22Rv1, analog 0.25 μM + bicalutamide 20 μM, 0, 3, 5 days; for synergy with enzalutamide in inhibiting cell growth: CWR22Rv1, analog 0.25 μM + enzalutamide 20 μM; for cell growth, combination with enzalutamide: CWR22Rv1, analog 0.25 μM + enzalutamide 20 μM, 0, 3, 5 days; for cell growth, niclosamide analog alone: CWR22Rv1, analog 0.25 μM, 0, 3, 5 days, FIGS. 9, 11, 12
Protocol: DMSO treatment was used as a negative control. Total cell numbers were counted at 0, 3, and 5 days.
DMSO treatment was used as a negative control. Total cell numbers were counted at 0, 3, and 5 days. […]
The cell growth was determined at 3,5 days. […] The cell growth was determined at 3,5 days.

AR variants [6] = assay: AR variant protein degradation (cycloheximide, MG132, ubiquitin IP) in C4-2B MDVR cells; type: cell-based; settings: FIG. 16
Protocol: as §1, §4
After 0, 2, 4, and 8 hours, whole cell lysate was collected and subjected to Western blot. Half-life of AR-V7 was then calculated.
Whole cell lysate was subsequently collected and subjected to Western blot.
Whole cell lysate was immunoprecipitated with an AR antibody and blot with ubiquitin and AR antibodies.

AR = assay: Western blot of AR in CWR22Rv1 xenograft tumor lysates; type: in vivo; settings: CWR22Rv1 xenograft lysates vs controls, FIG. 13D
Protocol: as §2, §3

| Compound | AR-V7 (AR variant) expression (AR-V7 [1]) | cell proliferation, combination with enzalutamide (MDV) (C4-2-V7 cells) | AR-V7 mediated PSA-luc activity (AR-V7 [3]) | V716M mutant AR transactivation (V716M AR mutant) | AR variant degradation via the proteasome-ubiquitination system (AR variants [4]) | AR-V1-mediated PSA-luc activity (AR-V1) | synergy with abiraterone in inhibiting cell growth (CWR22Rv1 cells) | cell growth, combination with abiraterone (CWR22Rv1 cells) | cell growth, combination with bicalutamide (CWR22Rv1 cells; FIG. 12) | synergy with enzalutamide in inhibiting cell growth (CWR22Rv1 cells) | cell growth, combination with enzalutamide (CWR22Rv1 cells) | cell growth, niclosamide analog alone (CWR22Rv1 cells) | AR variant degradation via the proteasome-ubiquitination system (AR variants [6]) | other results |
| --- | --- | --- | --- | --- | --- | --- | --- | --- | --- | --- | --- | --- | --- | --- |
| O=C(Nc1ccc(C(F)(F)F)cc1Cl)c1cc(Cl)ccc1O [Compound 7] | inhibited | further inhibited | inhibited | significantly blocked | degraded | inhibited | able to synergize | able to significantly inhibit | able to significantly inhibit | able to synergize | able to significantly inhibit | None of Compounds 1, 7, 30, 31, or 34 alone were able to inhibit | degraded | body weight ([2]; FIG. 13B): without inhibition of body weight; tumor growth ([2]; FIGS. 13A-13C): significantly inhibited; serum PSA levels compared with niclosamide (LuCaP 35CR PDX xenograft; both p.o. 150 mg/kg): to a greater extent than niclosamide; anti-tumor activity (tumor volume) compared with niclosamide (LuCaP 35CR PDX xenograft; both p.o. 150 mg/kg, 150 mg/kg): to a greater extent than niclosamide; also recorded: better anti-tumor activity than niclosamide; tumor growth (LuCaP 35CR PDX xenograft; castrated SCID mice, p.o. 150 mg/kg, 4 weeks, FIG. 19, 150 mg/kg): significantly inhibited; also recorded: suppressed; body weight (LuCaP 35CR PDX xenograft; castrated SCID mice, p.o. 150 mg/kg, 4 weeks, FIG. 19C): without inhibition of body weight; PSA protein expression in mouse sera (LuCaP 35CR PDX xenograft; p.o. 150 mg/kg, 4 weeks, FIG. 19D): inhibited; AR-V7 protein expression in tumors (AR-V7 [5]): significantly inhibited; enhancement of abiraterone treatment (cell growth) (CWR22Rv1 cells; CWR22Rv1, 0.5 μM Compound 7 + 5 μM abiraterone, 3,5 days, FIG. 17B): significantly enhanced; enhancement of apalutamide treatment (cell growth) (CWR22Rv1 cells; CWR22Rv1, 0.5 μM Compound 7 + 20 μM apalutamide, 3,5 days, FIG. 17A): significantly enhanced; AR protein expression in tumors (AR): significantly inhibited |
| C=CC(=O)Oc1ccc(Cl)cc1C(=O)Nc1ccc([N+](=O)[O-])cc1Cl [Compound 31] | inhibited | further inhibited | inhibited | significantly blocked | degraded | inhibited | able to synergize | significantly inhibited | able to significantly inhibit | able to synergize | significantly inhibited | None of Compounds 1, 7, 30, 31, or 34 alone were able to inhibit | degraded | synergy with bicalutamide in inhibiting cell growth (CWR22Rv1 cells; CWR22Rv1, analog 0.25 μM + bicalutamide 20 μM, FIG. 12): able to synergize |
